Publication PMC5218480 (PLoS ONE, 2017)

System: MV-4-11 cells
Test: Gene expression microarray analysis (Affymetrix PrimeView) and GSEA
Format: cell-based, human
Design: RFU PODN (11730768_x_at) / Fold change /veh PODN (11730768_x_at) / RFU LINC00158 (11744669_a_at) / Fold change /veh LINC00158 (11744669_a_at) / RFU DUSP10 (11751237_a_at) / Fold change /veh DUSP10 (11751237_a_at) / RFU ID3 (11757404_x_at) / Fold change /veh ID3 (11757404_x_at) / RFU PLEKHG5 (11737974_s_at) / Fold change /veh PLEKHG5 (11737974_s_at) / RFU LRRC4B (11730491_at) / Fold change /veh LRRC4B (11730491_at) / RFU GIMAP4 (11747438_a_at) / Fold change /veh GIMAP4 (11747438_a_at) / RFU KRT8 (11758183_x_at) / Fold change /veh KRT8 (11758183_x_at) / RFU CNN1 (11734310_a_at) / Fold change /veh CNN1 (11734310_a_at) / RFU VPS37D (11726825_at) / Fold change /veh VPS37D (11726825_at) / RFU C10orf10 (11716522_x_at) / Fold change /veh C10orf10 (11716522_x_at) / RFU KIR2DL2 /// KIR2DL4 /// KIR2DL5A /// KIR2DL5B /// KIR2DS1 /// KIR2DS2 /// KIR2DS3 /// KIR2DS4 /// KIR3DL3 /// KIR3DL3 /// KIR3DS1 (11738374_at) / Fold change /veh KIR2DL2 /// KIR2DL4 /// KIR2DL5A /// KIR2DL5B /// KIR2DS1 /// KIR2DS2 /// KIR2DS3 /// KIR2DS4 /// KIR3DL3 /// KIR3DL3 /// KIR3DS1 (11738374_at) / RFU C1QL1 (11718748_at) / Fold change /veh C1QL1 (11718748_at) / RFU TMPRSS4 (11747572_a_at) / Fold change /veh TMPRSS4 (11747572_a_at) / RFU HAMP (11756126_x_at) / Fold change /veh HAMP (11756126_x_at) / RFU RNFT2 (11725882_a_at) / Fold change /veh RNFT2 (11725882_a_at) / RFU NR4A2 (11747474_a_at) / Fold change /veh NR4A2 (11747474_a_at) / RFU ABCC12 (11746883_a_at) / Fold change /veh ABCC12 (11746883_a_at) / RFU TMEM136 (11760407_x_at) / Fold change /veh TMEM136 (11760407_x_at) / RFU CLDN22 /// WWC2 (11732394_at) / Fold change /veh CLDN22 /// WWC2 (11732394_at) / RFU HLA-DPB1 (11760878_x_at) / Fold change /veh HLA-DPB1 (11760878_x_at) / RFU SPINT1 (11716480_a_at) / Fold change /veh SPINT1 (11716480_a_at) / RFU GAP43 (11754022_s_at) / Fold change /veh GAP43 (11754022_s_at) / RFU A4GNT (11735810_at) / Fold change /veh A4GNT (11735810_at) / RFU PRB3 (11715151_x_at) / Fold change /veh PRB3 (11715151_x_at) / RFU TUBB4B (11761932_at) / Fold change /veh TUBB4B (11761932_at) / RFU CAPN14 (11732068_a_at) / Fold change /veh CAPN14 (11732068_a_at) / RFU TMCC2 (11721928_a_at) / Fold change /veh TMCC2 (11721928_a_at) / RFU IRGQ (11745062_a_at) / Fold change /veh IRGQ (11745062_a_at) / RFU FAM174B (11720279_a_at) / Fold change /veh FAM174B (11720279_a_at) / RFU TMPRSS4 (11748680_a_at) / Fold change /veh TMPRSS4 (11748680_a_at) / RFU FAM212B (11763350_a_at) / Fold change /veh FAM212B (11763350_a_at) / RFU PLEKHG5 (11743358_a_at) / Fold change /veh PLEKHG5 (11743358_a_at) / RFU ZSCAN30 (11745921_a_at) / Fold change /veh ZSCAN30 (11745921_a_at) / RFU CMKLR1 (11741424_a_at) / Fold change /veh CMKLR1 (11741424_a_at) / RFU LOC101060620 /// MAPK8IP1 (11723275_at) / Fold change /veh LOC101060620 /// MAPK8IP1 (11723275_at) / RFU SPTSSB (11747773_x_at) / Fold change /veh SPTSSB (11747773_x_at) / RFU PRSS12 (11739890_at) / Fold change /veh PRSS12 (11739890_at) / RFU BIN1 (11741810_x_at) / Fold change /veh BIN1 (11741810_x_at) / RFU WNT11 (11732464_a_at) / Fold change /veh WNT11 (11732464_a_at) / RFU C10orf10 (11716521_a_at) / Fold change /veh C10orf10 (11716521_a_at) / RFU C5orf56 (11738089_at) / Fold change /veh C5orf56 (11738089_at) / RFU CYB561 (11721691_x_at) / Fold change /veh CYB561 (11721691_x_at) / RFU ANKRD19P (11752326_a_at) / Fold change /veh ANKRD19P (11752326_a_at) / RFU OR2T12 /// OR2T33 /// OR2T8 (11738714_s_at) / Fold change /veh OR2T12 /// OR2T33 /// OR2T8 (11738714_s_at) / RFU VCAN (11748164_a_at) / Fold change /veh VCAN (11748164_a_at) / RFU JSRP1 (11732532_at) / Fold change /veh JSRP1 (11732532_at) / RFU KRTAP10-11 (11738290_x_at) / Fold change /veh KRTAP10-11 (11738290_x_at) / RFU MYO3A (11730013_a_at) / Fold change /veh MYO3A (11730013_a_at) / RFU EBF3 (11725865_a_at) / Fold change /veh EBF3 (11725865_a_at) / RFU CAMK2N1 (11719241_x_at) / Fold change /veh CAMK2N1 (11719241_x_at) / RFU C5orf56 (11738088_a_at) / Fold change /veh C5orf56 (11738088_a_at) / RFU OLFML3 (11715873_a_at) / Fold change /veh OLFML3 (11715873_a_at) / RFU LOC100653217 /// NTM (11731650_a_at) / Fold change /veh LOC100653217 /// NTM (11731650_a_at) / RFU MAPK11 (11762145_a_at) / Fold change /veh MAPK11 (11762145_a_at) / RFU FIZ1 (11724087_x_at) / Fold change /veh FIZ1 (11724087_x_at) / RFU OASL (11726364_x_at) / Fold change /veh OASL (11726364_x_at) / RFU SOX15 (11748057_x_at) / Fold change /veh SOX15 (11748057_x_at) / RFU CD79A (11719716_a_at) / Fold change /veh CD79A (11719716_a_at) / RFU HIST1H1D (11736915_at) / Fold change /veh HIST1H1D (11736915_at) / RFU CASKIN2 (11723855_a_at) / Fold change /veh CASKIN2 (11723855_a_at) / RFU LOC730098 (11760151_x_at) / Fold change /veh LOC730098 (11760151_x_at) / RFU OR4N2 (11742367_at) / Fold change /veh OR4N2 (11742367_at) / RFU PRRT2 (11749266_a_at) / Fold change /veh PRRT2 (11749266_a_at) / RFU SNX32 (11753110_a_at) / Fold change /veh SNX32 (11753110_a_at) / RFU CDHR5 (11726645_a_at) / Fold change /veh CDHR5 (11726645_a_at) / RFU RCAN1 (11760418_a_at) / Fold change /veh RCAN1 (11760418_a_at) / RFU FAM167A (11723789_a_at) / Fold change /veh FAM167A (11723789_a_at) / RFU FAM26E (11764081_at) / Fold change /veh FAM26E (11764081_at) / RFU ISYNA1 (11749810_s_at) / Fold change /veh ISYNA1 (11749810_s_at) / RFU ACY1 (11761880_at) / Fold change /veh ACY1 (11761880_at) / RFU 11764098_at / Fold change /veh 11764098_at / RFU SAMD14 (11745864_x_at) / Fold change /veh SAMD14 (11745864_x_at) / RFU NPB (11741838_a_at) / Fold change /veh NPB (11741838_a_at) / RFU TMPRSS6 (11731388_a_at) / Fold change /veh TMPRSS6 (11731388_a_at) / RFU KRTAP10-2 (11738614_at) / Fold change /veh KRTAP10-2 (11738614_at) / RFU ARHGAP8 /// PRR5-ARHGAP8 (11727945_x_at) / Fold change /veh ARHGAP8 /// PRR5-ARHGAP8 (11727945_x_at) / RFU KRTAP5-7 /// NADSYN1 (11734609_at) / Fold change /veh KRTAP5-7 /// NADSYN1 (11734609_at) / RFU RASL12 (11751679_a_at) / Fold change /veh RASL12 (11751679_a_at) / RFU CDKN2B (11736163_a_at) / Fold change /veh CDKN2B (11736163_a_at) / RFU PRF1 (11729649_at) / Fold change /veh PRF1 (11729649_at) / RFU, ZNF638 /// ZNF638-IT1 / Fold change vs veh, ZNF638 /// ZNF638-IT1 / RFU, PANK3 / Fold change vs veh, PANK3 / RFU, SH3YL1 / Fold change vs veh, SH3YL1 / RFU, ZEB2 / Fold change vs veh, ZEB2 / RFU, NRIP1 / Fold change vs veh, NRIP1 / RFU, PTTG1IP / Fold change vs veh, PTTG1IP / RFU, CAPN2 / Fold change vs veh, CAPN2 / RFU, MED14 / Fold change vs veh, MED14 / RFU, SNORA58 / Fold change vs veh, SNORA58 / RFU, C1orf63 / Fold change vs veh, C1orf63 / RFU, LRRFIP1 / Fold change vs veh, LRRFIP1 / RFU, NDUFAF7 / Fold change vs veh, NDUFAF7 / RFU, SLC12A2 / Fold change vs veh, SLC12A2 / RFU, IBTK / Fold change vs veh, IBTK / RFU, ESF1 / Fold change vs veh, ESF1 / Fold change vs veh, TMEM50B / RFU, TAOK1 / Fold change vs veh, TAOK1 / RFU, ACBD3 / Fold change vs veh, ACBD3 / RFU, TMA16 / Fold change vs veh, TMA16 / RFU, RWDD3 / Fold change vs veh, RWDD3 / RFU, BCAT1 / Fold change vs veh, BCAT1 / RFU, EDEM3 / Fold change vs veh, EDEM3 / RFU, TMEM33 / Fold change vs veh, TMEM33 / RFU, WDR75 / Fold change vs veh, WDR75 / RFU, AHCTF1 / Fold change vs veh, AHCTF1 / RFU, TFRC / Fold change vs veh, TFRC / RFU, ZDHHC17 / Fold change vs veh, ZDHHC17 / RFU, NOM1 / Fold change vs veh, NOM1 / RFU, ARL8B / Fold change vs veh, ARL8B / RFU, ZBTB11 / Fold change vs veh, ZBTB11 / RFU, TAMM41 / Fold change vs veh, TAMM41 / RFU, KIAA1704 /// LOC100996395 / Fold change vs veh, KIAA1704 /// LOC100996395 / RFU, ING1 / Fold change vs veh, ING1 / RFU, TRMT61B / Fold change vs veh, TRMT61B / RFU, FUBP3 / Fold change vs veh, FUBP3 / RFU, TP53 / Fold change vs veh, TP53 / RFU, TNKS2 / Fold change vs veh, TNKS2 / RFU, ZFP14 / Fold change vs veh, ZFP14 / RFU, ACTR2 / Fold change vs veh, ACTR2 / RFU, PPP3R1 / Fold change vs veh, PPP3R1 / RFU, PIK3R1 / Fold change vs veh, PIK3R1 / RFU, HNRNPA1 / Fold change vs veh, HNRNPA1 / RFU, RNF170 / Fold change vs veh, RNF170 / RFU, ZNF28 / Fold change vs veh, ZNF28 / RFU, RNGTT / Fold change vs veh, RNGTT / RFU, OGT / Fold change vs veh, OGT / RFU, BRD1 / Fold change vs veh, BRD1 / RFU, MARS / Fold change vs veh, MARS / RFU, ZNF655 / Fold change vs veh, ZNF655 / RFU, FAHD1 / Fold change vs veh, FAHD1 / RFU, BDP1 / Fold change vs veh, BDP1 / RFU, LRRCC1 / Fold change vs veh, LRRCC1 / RFU, ARID1A / Fold change vs veh, ARID1A / RFU, ZNF146 / Fold change vs veh, ZNF146 / RFU, ZNF330 / Fold change vs veh, ZNF330 / RFU, GPN3 / Fold change vs veh, GPN3 / RFU, C9orf123 / Fold change vs veh, C9orf123 / RFU, N4BP2L2 / Fold change vs veh, N4BP2L2 / RFU, ARFIP1 / Fold change vs veh, ARFIP1 / RFU, FAM179B / Fold change vs veh, FAM179B / RFU, BCL10 / Fold change vs veh, BCL10 / RFU, UHRF1BP1L / Fold change vs veh, UHRF1BP1L / RFU, BET1 / Fold change vs veh, BET1 / RFU, CNOT2 / Fold change vs veh, CNOT2 / RFU, ZNF268 / Fold change vs veh, ZNF268 / Fold change vs veh, ZNF507 / RFU, DGCR2 / Fold change vs veh, DGCR2 / RFU, WDSUB1 / Fold change vs veh, WDSUB1 / Fold change vs veh, HSP90B1 /// MIR3652 / RFU, ADSS / Fold change vs veh, ADSS / RFU, GK / Fold change vs veh, GK / RFU, ZNF148 / Fold change vs veh, ZNF148 / RFU, TAF9 / Fold change vs veh, TAF9 / RFU, SLC1A5 / Fold change vs veh, SLC1A5 / RFU, SLMO2 / Fold change vs veh, SLMO2 / RFU, ABCC4 / Fold change vs veh, ABCC4 / RFU, LOC101060439 /// RAP1B / Fold change vs veh, LOC101060439 /// RAP1B / RFU, RFX7 / Fold change vs veh, RFX7 / RFU, GTPBP10 / Fold change vs veh, GTPBP10 / RFU, CNEP1R1 / Fold change vs veh, CNEP1R1 / RFU, BIVM-ERCC5 /// ERCC5 / Fold change vs veh, BIVM-ERCC5 /// ERCC5 / RFU, ILF3 / Fold change vs veh, ILF3 / RFU 11762660_at / Fold change /veh 11762660_at / RFU VCAN (11757783_s_at) / Fold change /veh VCAN (11757783_s_at) / RFU DDX43 (11728927_at) / Fold change /veh DDX43 (11728927_at) / RFU KRT8 (11758188_x_at) / Fold change /veh KRT8 (11758188_x_at) / RFU NKD1 (11759106_at) / Fold change /veh NKD1 (11759106_at) / RFU SRD5A1 (11742802_a_at) / Fold change /veh SRD5A1 (11742802_a_at) / RFU TPSAB1 /// TPSB2 (11721975_s_at) / Fold change /veh TPSAB1 /// TPSB2 (11721975_s_at) / RFU GSTM3 (11746129_a_at) / Fold change /veh GSTM3 (11746129_a_at) / RFU IL23R (11737362_x_at) / Fold change /veh IL23R (11737362_x_at) / RFU TMEM51 (11727254_a_at) / Fold change /veh TMEM51 (11727254_a_at) / RFU PIWIL2 (11732686_x_at) / Fold change /veh PIWIL2 (11732686_x_at) / RFU ORM1 (11744905_x_at) / Fold change /veh ORM1 (11744905_x_at) / RFU CCDC152 (11743942_at) / Fold change /veh CCDC152 (11743942_at) / RFU ECM1 (11717891_a_at) / Fold change /veh ECM1 (11717891_a_at) / RFU IL23R (11748794_a_at) / Fold change /veh IL23R (11748794_a_at) / RFU TNFAIP8L3 (11732012_x_at) / Fold change /veh TNFAIP8L3 (11732012_x_at) / RFU MBOAT4 (11741988_at) / Fold change /veh MBOAT4 (11741988_at) / RFU 11764193_at / Fold change /veh 11764193_at / RFU TMEM53 (11763286_at) / Fold change /veh TMEM53 (11763286_at) / RFU MAGEB2 (11727129_at) / Fold change /veh MAGEB2 (11727129_at) / RFU TMEM200A (11744735_a_at) / Fold change /veh TMEM200A (11744735_a_at) / RFU CCDC152 (11751479_a_at) / Fold change /veh CCDC152 (11751479_a_at) / RFU FAM211A (11726209_a_at) / Fold change /veh FAM211A (11726209_a_at) / RFU RGS16 (11746705_a_at) / Fold change /veh RGS16 (11746705_a_at) / RFU VCAN (11755009_s_at) / Fold change /veh VCAN (11755009_s_at) / RFU RHOB (11743442_s_at) / Fold change /veh RHOB (11743442_s_at) / RFU RGS16 (11720943_a_at) / Fold change /veh RGS16 (11720943_a_at) / RFU RGS16 (11720944_at) / Fold change /veh RGS16 (11720944_at) / RFU, VPS4B / Fold change vs veh, VPS4B / RFU, CREB1 / Fold change vs veh, CREB1 / RFU, DNAJC13 / Fold change vs veh, DNAJC13 / RFU, GNAQ / Fold change vs veh, GNAQ / RFU, CDK5R1 / Fold change vs veh, CDK5R1 / RFU, ZRANB3 / Fold change vs veh, ZRANB3 / RFU, CUL4A / Fold change vs veh, CUL4A / RFU, CCNY / Fold change vs veh, CCNY / RFU, UFL1 / Fold change vs veh, UFL1 / RFU, COG3 / Fold change vs veh, COG3 / RFU, DIAPH2 / Fold change vs veh, DIAPH2 / RFU, SKA2 / Fold change vs veh, SKA2 / RFU, AFF3 / Fold change vs veh, AFF3 / RFU, LMF1 / Fold change vs veh, LMF1 / RFU, IPO11 / Fold change vs veh, IPO11 / RFU, DFFB / Fold change vs veh, DFFB / RFU, FOXP1 / Fold change vs veh, FOXP1 / RFU, CARD8 / Fold change vs veh, CARD8 / RFU, STRN3 / Fold change vs veh, STRN3 / RFU, ADK / Fold change vs veh, ADK / RFU, RASSF2 / Fold change vs veh, RASSF2 / RFU, WIPF1 / Fold change vs veh, WIPF1 / RFU, LARP1B / Fold change vs veh, LARP1B / RFU, RASA1 / Fold change vs veh, RASA1 / RFU, RB1 / Fold change vs veh, RB1 / RFU, PPFIA1 / Fold change vs veh, PPFIA1 / RFU, MAT2A / Fold change vs veh, MAT2A / RFU, CCT5 / Fold change vs veh, CCT5 / RFU, WDR92 / Fold change vs veh, WDR92 / RFU, CUX1 / Fold change vs veh, CUX1 / RFU, TTC7A / Fold change vs veh, TTC7A / RFU, TMEM135 / Fold change vs veh, TMEM135 / RFU, DEPTOR / Fold change vs veh, DEPTOR / RFU, CPM / Fold change vs veh, CPM / RFU, DNAJB6 / Fold change vs veh, DNAJB6 / RFU, CACNA2D3 / Fold change vs veh, CACNA2D3 / RFU, DTX4 / Fold change vs veh, DTX4 / RFU, TFCP2 / Fold change vs veh, TFCP2 / RFU, GMCL1 /// GMCL1P1 / Fold change vs veh, GMCL1 /// GMCL1P1 / RFU, AEBP2 / Fold change vs veh, AEBP2 / RFU, SNHG1 /// SNORD22 /// SNORD25 /// SNORD26 /// SNORD27 /// SNORD28 /// SNORD29 /// SNORD31 / Fold change vs veh, SNHG1 /// SNORD22 /// SNORD25 /// SNORD26 /// SNORD27 /// SNORD28 /// SNORD29 /// SNORD31 / Fold change (Aza/veh), C12orf56 (ProbeSet 11735607_a_at) / Fold change (ACY-1035/veh), C12orf56 (ProbeSet 11735607_a_at) / Fold change (Aza/veh), FGFR1OP (ProbeSet 11751329_s_at) / Fold change (ACY-1035/veh), FGFR1OP (ProbeSet 11751329_s_at) / Fold change (Aza/veh), VPS36 (ProbeSet 11739960_a_at) / Fold change (ACY-1035/veh), VPS36 (ProbeSet 11739960_a_at) / RFU SYPL1 (11715823_x_at) / Fold change /veh SYPL1 (11715823_x_at) / RFU IGFBP7 (11715501_s_at) / Fold change /veh IGFBP7 (11715501_s_at) / RFU REEP3 (11722064_at) / Fold change /veh REEP3 (11722064_at) / RFU IGLL1 (11728026_x_at) / Fold change /veh IGLL1 (11728026_x_at): dose or concentration left out as unconfirmed
Details: ProbeSet 11756954_s_at; LIST B

Nc1ncn([C@@H]2O[C@H](CO)[C@@H](O)[C@H]2O)c(=O)n1 [azacitidine]
Fold change vs veh, ZEB2: 0.83
